Legend:
Assay type in all cases: cell-based
MIA PaCa-2 cells [1] = experiment: KP372-1 + BMN 673 combination survival / synergy (CompuSyn); conditions: Fa=0.9; 0.075 μM KP372-1 + 1 μM BMN 673 in combination
Experimental: DNA content assay: A modified cell survival assay measuring DNA content over ˜7-day period was utilized. Cells were seeded at 10,000 cells/well in 48-well plates in 0.5 mL of media. The next day, media were aspirated and replaced with 0.5 mL media containing the indicated concentrations of KP372-1 (μM) alone or in combination with 50 μM DIC. The cells were exposed for 2 hours (2 h) and the media were again aspirated and replaced with fresh media (without KP372-1). The cells were then allowed to grow for ˜7 days or until control samples became confluent. Cells were then lysed in 250 μl dI water, then freeze-thawed followed by suspension in 0.5 mL 1× TNE buffer containing Hoechst 33258 fluorescent dye. The DNA content was determined by measuring florescence signal using a Victor X5 plate reader. Fluorescence values of treated samples were normalized to that of control samples and plotted as means±SEM for treated over control (i.e., DMSO) treated (T/C) samples. […]
Synergy calculations: Drug synergy was calculated using CompuSyn 1.0 software (www.combosyn.com). […] Then, cell survival was assessed via DNA content assay similarly to as described above. […] Dose-Reduction Index (DRI) values were calculated using the Chou-Talalay method. Briefly, DRI values are calculated using the following equation: DRI=(Dx)1/(D)1 where (Dx)1 is the dose of the drug alone and (D)1 is the dose of the drug in combination. […]

Capan-2 cells = experiment: DNA content assay (relative survival), Capan-2; conditions: 2 h
Experimental: (§1) DNA content assay: A modified cell survival assay measuring DNA content over ˜7-day period was utilized. Cells were seeded at 10,000 cells/well in 48-well plates in 0.5 mL of media. […] The cells were exposed for 2 hours (2 h) and the media were again aspirated and replaced with fresh media (without KP372-1). The cells were then allowed to grow for ˜7 days or until control samples became confluent. […] The DNA content was determined by measuring florescence signal using a Victor X5 plate reader. Fluorescence values of treated samples were normalized to that of control samples and plotted as means±SEM for treated over control (i.e., DMSO) treated (T/C) samples. The reported values are the results of the following sample sizes for KP372-1±DIC: MIA PaCa-2 concentration (n=5); Capan-2 concentration (n=3); MIA PaCa-2±siSCR/siNQO1 (n=3); hTERT-HPNE (n=3); PANC-1 (n=3); AsPC-1 (n=4); BxPC-3 (n=3); MIA PaCa-2 time (n=3); Capan-2 time (n=3). The reported values are the results of the following sample sizes for β-lap±DIC: MIA PaCa-2 (n=4) and Capan-2 (n=4).

MIA PaCa-2 cells [2] = experiment: DNA content assay (relative survival), MIA PaCa-2; conditions: 2 h
Experimental: as §1

Row | SMILES | dose reduction index (DRI) (MIA PaCa-2 cells [1]) | concentration up to which no appreciable toxicity was induced (Capan-2 cells) | concentration up to which no appreciable toxicity was induced (MIA PaCa-2 cells [2])
1 | Cn1ncnc1[C@H]1c2n[nH]c(=O)c3cc(F)cc(c23)N[C@@H]1c1ccc(F)cc1 [BMN 673, talazoparib] | 3.99 | – | –
2 | CC1(C)CCC2=C(O1)c1ccccc1C(=O)C2=O [β-lap, β-lapachone] | – | up to 1.0 μM | up to 2.0 μM

Reference: patent publication US12128050B2, “KP372-1-induced DNA damage as a chemotherapeutic approach to treat cancer” (New Mexico Tech University Research Park Corporation, priority 2020, dated 2024)
